Test results reported in patent publication US6573218B1, “Fused-benzene derivatives useful as herbicides” (Ishihara Sangyo Kaisha, Ltd., priority 1998, dated 2003).

Tests used:
Assay type in all cases: in vivo
[1] = test system: barnyardgrass (Echinochloa crus-galli, ECHCG); assay: Pre-emerge greenhouse herbicide test; details: 250 g ai/ha, 14 days after application, scale 0-100 (0 no damage, 100 complete death)
Description: (§1) A standard greenhouse herbicide activity screening system was used to evaluate the herbicidal efficacy and crop safety of these test compounds. Seven broadleaf weed species including redroot pigweed (Amaranthus retroflexus, AMARE), velvetleaf (Abutilon theophrasti, ABUTH), sicklepod (Cassia obtusifolia, CASOB), ivyleaf morningglory (Ipomoea hederacea, IPOHE), lambsquarters (Chenopodium album, CHEAL), common ragweed (Ambrosia artemisiifolia L., AMBEL), and cocklebur (Xanthium strumarium, XANST) were used as test species. Four grass weed species including green foxtail (Setaria viridis, SETVI), barnyardgrass (Echinochloa crus-galli, ECHCG), johnsongrass (Sorghum halepense, SORHA), and large crabgrass (Digitaria sanguinalis, DIGSA) were also used. In addition, three crop species, field corn (Zea mays L., var. Dekalb 527, CORN), soybean (Glycine max L., var. Pella 86, SOY), and upland rice (Ory0a sp., var.Tebonnet, RICE) were included.
(§2) All plants were grown in 10 cm square plastic pots which were filled with a sandy loam soil mix. For pre-emerge tests, seeds were planted one day prior to application of the test compounds. For post-emerge tests, seeds were planted 8-21 days prior to the test to allow emergence and good foliage development prior to application of the test substances. At the time of the post-emerge application, plants of all species were usually at the 2-3 leaf stage of development.
(§3) All test compounds were dissolved in acetone and applied to the test units in a volume of 187 l/ha. Test materials were applied at rates ranging from 15 g ai/ha to 1000 g ai/ha using a track sprayer equipped with a TJ8001E even flow flat fan spray nozzle. Plants were arranged on a shelf so that the top of the canopy (post-emerge) or top of the soil surface (pre-emerge) was 40-45 cm below the nozzle. Pressurized air was used to force the test solution through the nozzle as it was mechanically advanced over the top of all test plants/pots. This application simulates a typical commercial field herbicide application.
(§4) In the post-emerge test, a commercial non-ionic surfactant was also included (0.25% v/v) to enhance wetting of the leaf surfaces of target plants. Immediately after application, test units of the pre-emerge applications were watered at the soil surface to incorporate the test materials.
(§5) At 14 days after application of the test materials, phytotoxicity ratings were recorded. A rating scale of 0-100 was used as previously described in Research Methods in Weed Science, 2nd edition, B. Truelove, Ed., Southern Weed Science Society, Auburn University, Auburn, Ala., 1977. Briefly, “0” corresponds to no damage and “100” corresponds to complete death of all plants in the test unit. This scale was used both to determine efficacy against weed species and damage to crop species. Herbicide activity data for various compounds of this invention, which are shown by compound No. in Tables 1-14, are shown in Tables 16 and 17.

[2] = test system: green foxtail (Setaria viridis, SETVI); assay: Pre-emerge greenhouse herbicide test; details: 250 g ai/ha, 14 days after application, scale 0-100 (0 no damage, 100 complete death)
Description: as §1, §2, §3, §4, §5

[3] = test system: ivyleaf morningglory (Ipomoea hederacea, IPOHE); assay: Pre-emerge greenhouse herbicide test; details: 250 g ai/ha, 14 days after application, scale 0-100 (0 no damage, 100 complete death)
Description: as §1, §2, §3, §4, §5

[4] = test system: johnsongrass (Sorghum halepense, SORHA); assay: Pre-emerge greenhouse herbicide test; details: 250 g ai/ha, 14 days after application, scale 0-100 (0 no damage, 100 complete death)
Description: as §1, §2, §3, §4, §5

[5] = test system: lambsquarters (Chenopodium album, CHEAL); assay: Pre-emerge greenhouse herbicide test; details: 250 g ai/ha, 14 days after application, scale 0-100 (0 no damage, 100 complete death)
Description: as §1, §2, §3, §4, §5

[6] = test system: large crabgrass (Digitaria sanguinalis, DIGSA); assay: Pre-emerge greenhouse herbicide test; details: 250 g ai/ha, 14 days after application, scale 0-100 (0 no damage, 100 complete death)
Description: as §1, §2, §3, §4, §5

[7] = test system: redroot pigweed (Amaranthus retroflexus, AMARE); assay: Pre-emerge greenhouse herbicide test; details: 250 g ai/ha, 14 days after application, scale 0-100 (0 no damage, 100 complete death)
Description: as §1, §2, §3, §4, §5

[8] = test system: sicklepod (Cassia obtusifolia, CASOB); assay: Pre-emerge greenhouse herbicide test; details: 250 g ai/ha, 14 days after application, scale 0-100 (0 no damage, 100 complete death)
Description: as §1, §2, §3, §4, §5

[9] = test system: velvetleaf (Abutilon theophrasti, ABUTH); assay: Pre-emerge greenhouse herbicide test; details: 250 g ai/ha, 14 days after application, scale 0-100 (0 no damage, 100 complete death)
Description: as §1, §2, §3, §4, §5

[10] = test system: field corn (Zea mays L., var. Dekalb 527, CORN); assay: Pre-emerge greenhouse crop damage test; details: pre-emerge, 250 g ai/ha, 14 days after application, scale 0-100 (0 no damage, 100 complete death)
Description: as §1, §2, §3, §4, §5

[11] = test system: soybean (Glycine max L., var. Pella 86, SOY); assay: Pre-emerge greenhouse crop damage test; details: pre-emerge, 250 g ai/ha, 14 days after application, scale 0-100 (0 no damage, 100 complete death)
Description: as §1, §2, §3, §4, §5

[12] = test system: upland rice (Ory0a sp., var.Tebonnet, RICE); assay: Pre-emerge greenhouse crop damage test; details: in vivo
Description: as §1, §2, §3, §4, §5

[13] = test system: barnyardgrass (Echinochloa crus-galli, ECHCG); assay: Post-emerge greenhouse herbicide test; details: 250 g ai/ha, 14 days after application
Description: as §1, §2, §3, §4, §5

[14] = test system: common ragweed (Ambrosia artemisiifolia L., AMBEL); assay: Post-emerge greenhouse herbicide test; details: 250 g ai/ha, 14 days after application
Description: as §1, §2, §3, §4, §5

[15] = test system: green foxtail (Setaria viridis, SETVI); assay: Post-emerge greenhouse herbicide test; details: 250 g ai/ha, 14 days after application
Description: as §1, §2, §3, §4, §5

[16] = test system: ivyleaf morningglory (Ipomoea hederacea, IPOHE); assay: Post-emerge greenhouse herbicide test; details: 250 g ai/ha, 14 days after application
Description: as §1, §2, §3, §4, §5

[17] = test system: johnsongrass (Sorghum halepense, SORHA); assay: Post-emerge greenhouse herbicide test; details: 250 g ai/ha, 14 days after application
Description: as §1, §2, §3, §4, §5

[18] = test system: lambsquarters (Chenopodium album, CHEAL); assay: Post-emerge greenhouse herbicide test; details: 250 g ai/ha, 14 days after application
Description: as §1, §2, §3, §4, §5

[19] = test system: large crabgrass (Digitaria sanguinalis, DIGSA); assay: Post-emerge greenhouse herbicide test; details: 250 g ai/ha, 14 days after application
Description: as §1, §2, §3, §4, §5

[20] = test system: redroot pigweed (Amaranthus retroflexus, AMARE); assay: Post-emerge greenhouse herbicide test; details: 250 g ai/ha, 14 days after application
Description: as §1, §2, §3, §4, §5

[21] = test system: sicklepod (Cassia obtusifolia, CASOB); assay: Post-emerge greenhouse herbicide test; details: 250 g ai/ha, 14 days after application
Description: as §1, §2, §3, §4, §5

[22] = test system: velvetleaf (Abutilon theophrasti, ABUTH); assay: Post-emerge greenhouse herbicide test; details: 250 g ai/ha, 14 days after application
Description: as §1, §2, §3, §4, §5

[23] = test system: field corn (Zea mays L., var. Dekalb 527, CORN); assay: Post-emerge greenhouse crop damage test; details: 250 g ai/ha, post-emerge, 14 days after application
Description: as §1, §2, §3, §4, §5

[24] = test system: soybean (Glycine max L., var. Pella 86, SOY); assay: Post-emerge greenhouse crop damage test; details: 250 g ai/ha, post-emerge, 14 days after application
Description: as §1, §2, §3, §4, §5

[25] = test system: upland rice (Ory0a sp., var.Tebonnet, RICE); assay: Post-emerge greenhouse crop damage test; details: 250 g ai/ha, post-emerge, 14 days after application
Description: as §1, §2, §3, §4, §5

SMILES	Pre-emerge Herbicidal Activity ECHCG (phytotoxicity rating) [1]	Pre-emerge Herbicidal Activity SETVI (phytotoxicity rating) [2]	Pre-emerge Herbicidal Activity IPOHE (phytotoxicity rating) [3]	Pre-emerge Herbicidal Activity SORHA (phytotoxicity rating) [4]	Pre-emerge Herbicidal Activity CHEAL (phytotoxicity rating) [5]	Pre-emerge Herbicidal Activity DIGSA (phytotoxicity rating) [6]	Pre-emerge Herbicidal Activity AMARE (phytotoxicity rating) [7]	Pre-emerge Herbicidal Activity CASOB (phytotoxicity rating) [8]	Pre-emerge Herbicidal Activity ABUTH (phytotoxicity rating) [9]	Pre-emerge Herbicidal Activity CORN (crop damage rating) [10]	Pre-emerge Herbicidal Activity SOY (crop damage rating) [11]	Pre-emerge Herbicidal Activity RICE (crop damage rating) [12]	Post-emerge Herbicidal Activity ECHCG (phytotoxicity rating 0-100) [13]	Post-emerge Herbicidal Activity SETVI (phytotoxicity rating 0-100) [15]	Post-emerge Herbicidal Activity IPOHE (phytotoxicity rating 0-100) [16]	Post-emerge Herbicidal Activity SORHA (phytotoxicity rating 0-100) [17]	Post-emerge Herbicidal Activity CHEAL (phytotoxicity rating 0-100) [18]	Post-emerge Herbicidal Activity DIGSA (phytotoxicity rating 0-100) [19]	Post-emerge Herbicidal Activity AMARE (phytotoxicity rating 0-100) [20]	Post-emerge Herbicidal Activity CASOB (phytotoxicity rating 0-100) [21]	further results
Cc1nc2c(-n3ncc(C(F)(F)F)cc3=O)c(F)cc(Cl)c2o1 [Compound 12-1]	100	100	99	100	100	100	100	90	100	100	70	90	50	0	40	0	0	0	70	10	Post-emerge Herbicidal Activity AMBEL (phytotoxicity rating 0-100) [14]: 20; Post-emerge Herbicidal Activity ABUTH (phytotoxicity rating 0-100) [22]: 95; Post-emerge crop damage CORN (phytotoxicity rating 0-100) [23]: 0; Post-emerge crop damage SOY (phytotoxicity rating 0-100) [24]: 50; Post-emerge crop damage RICE (phytotoxicity rating 0-100) [25]: 10
CC1Oc2c(Cl)cc(F)c(-c3nn(C)c(OC(F)F)c3Cl)c2NC1=O (centres unmarked) [Compound 10-8, 4-Chloro-3-(8-chloro-6-fluoro-2-methyl-2H-1,4-benzoxazine-3-one-5-yl)-5-difluoromethoxy-1-methyl-i H-pyrazole]	100	100	99	99	100	100	100	95	100	0	15	40	100	100	100	55	100	65	100	100	Post-emerge Herbicidal Activity AMBEL (phytotoxicity rating 0-100) [14]: 95; Post-emerge Herbicidal Activity ABUTH (phytotoxicity rating 0-100) [22]: 100; Post-emerge crop damage CORN (phytotoxicity rating 0-100) [23]: 25; Post-emerge crop damage SOY (phytotoxicity rating 0-100) [24]: 100; Post-emerge crop damage RICE (phytotoxicity rating 0-100) [25]: 90
Cn1c(C(F)(F)F)cc(=O)n(-c2c(F)cc(Cl)c3c2NC(=O)CO3)c1=O [Compound 4-1]	70	100	100	95	100	100	100	100	100	90	100	90	30	10	100	40	100	30	100	80	Post-emerge Herbicidal Activity ABUTH (phytotoxicity rating 0-100) [22]: 100; Post-emerge crop damage CORN (phytotoxicity rating 0-100) [23]: 70; Post-emerge crop damage SOY (phytotoxicity rating 0-100) [24]: 100; Post-emerge crop damage RICE (phytotoxicity rating 0-100) [25]: 65
CCOC(=O)c1nc2c(-n3c(=O)cc(C(F)(F)F)n(C)c3=O)c(F)cc(Cl)c2oc1=O [Compound 3-5]	0	0	0	0	70	0	50	0	65	0	0	0	0	10	0	0	0	0	20	0	Post-emerge Herbicidal Activity ABUTH (phytotoxicity rating 0-100) [22]: 60; Post-emerge crop damage CORN (phytotoxicity rating 0-100) [23]: 0; Post-emerge crop damage SOY (phytotoxicity rating 0-100) [24]: 0; Post-emerge crop damage RICE (phytotoxicity rating 0-100) [25]: 0
